In patent US20230066011A1, “PYRROLOPYRIMIDINE DERIVATIVE, AND PHARMACEUTICAL COMPOSITION FOR PREVENTING OR TREATING PROTEIN KINASE-RELATED DISEASE COMPRISING SAME AS ACTIVE INGREDIENT” (VORONOI CO., LTD., priority 2019, published 2023):

How the values were obtained:
human GST-DYRK1A = molecular target: T1, human GST-DYRK1A (Homo sapiens, UniProt Q13627); assay: GST-DYRK1A enzyme inhibition, ADP-Glo kinase assay; assay type: biochemical; conditions: ATP 10 μM, GST-DYRK1A full length, read-out: DYRK1 IC50
T1 construct: purified human GST-DYRK1A (full length, Thermo Scientifics) enzyme; purchased Thermo Scientifics
Procedure, shortened: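 Full-length human GST-DYRK1A (10 ng) with 10 μM ATP and specific substrate in 40 mM Tris-HCl pH 7.4, 20 mM MgCl2, 0.5 mg/mL BSA, 50 μM DTT, 1 h at 25 °C. ADP formation read by ADP-Glo luminescence relative to solvent control; IC50 from three data sets.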

TTK = molecular target: T2, TTK (Homo sapiens, UniProt P33981); assay: TTK enzyme inhibition, ADP-Glo kinase assay; assay type: biochemical; set-up: purchased SignalChem T20-10G; conditions: ATP 5 μM
T2 sequence (P33981 1-857): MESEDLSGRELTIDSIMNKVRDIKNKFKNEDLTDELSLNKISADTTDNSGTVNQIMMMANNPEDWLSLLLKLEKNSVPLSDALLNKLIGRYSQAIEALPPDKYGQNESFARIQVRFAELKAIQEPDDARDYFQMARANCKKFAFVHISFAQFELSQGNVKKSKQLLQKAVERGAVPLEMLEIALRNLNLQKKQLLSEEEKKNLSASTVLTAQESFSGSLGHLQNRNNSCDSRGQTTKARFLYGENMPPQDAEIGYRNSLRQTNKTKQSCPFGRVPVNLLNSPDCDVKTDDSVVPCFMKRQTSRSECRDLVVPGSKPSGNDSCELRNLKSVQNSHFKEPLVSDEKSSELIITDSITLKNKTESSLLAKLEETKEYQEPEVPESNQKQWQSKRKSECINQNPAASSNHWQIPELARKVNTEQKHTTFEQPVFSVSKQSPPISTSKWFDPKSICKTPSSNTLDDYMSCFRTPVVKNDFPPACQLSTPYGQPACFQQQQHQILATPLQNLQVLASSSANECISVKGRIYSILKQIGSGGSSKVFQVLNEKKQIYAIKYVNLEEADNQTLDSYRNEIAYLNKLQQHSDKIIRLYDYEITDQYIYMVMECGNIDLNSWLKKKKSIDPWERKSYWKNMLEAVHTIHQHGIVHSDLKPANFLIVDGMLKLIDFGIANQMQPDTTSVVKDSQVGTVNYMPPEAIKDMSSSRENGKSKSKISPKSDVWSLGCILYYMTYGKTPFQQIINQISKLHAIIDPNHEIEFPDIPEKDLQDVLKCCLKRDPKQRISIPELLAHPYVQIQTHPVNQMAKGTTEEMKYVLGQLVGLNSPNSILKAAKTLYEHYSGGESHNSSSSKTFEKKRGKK
Procedure, shortened: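 Purified human TTK (7.5 ng) was reacted with 5 μM ATP and 0.2 μg MBP substrate for 4 h at 25 °C in 40 mM Tris-HCl pH 7.4, 20 mM MgCl2, 0.1 mg/mL BSA, 50 μM DTT. ADP formation was read by ADP-Glo luminescence, and IC50 was taken relative to solvent control.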

IL-6 = assay: Inhibition of LPS-induced IL-6 secretion of THP-1 monocytes (ELISA); assay type: cell-based, human; conditions: Homo sapiens, THP-1; compound 0.5 μM, LPS 500 ng/mL, 24 hours; read-out: THP1/IL6 (% inhib)
Procedure, shortened: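 THP-1 monocytes grown 16 h at 37 °C, pretreated 1 h with compound at final 0.5 μM, then stimulated with LPS at final 500 ng/mL for 24 h. IL-6 and TNF-α in culture supernatant measured by ELISA (OD 450 nm).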

Row | IC50 (human GST-DYRK1A) | IC50 (TTK) | SMILES | inhibition at 0.5 µM (IL-6)
1 | 301 to 1000 nM | < 100 nM | N#Cc1c[nH]c2nc(Nc3ccc(C(=O)N4CCOCC4)c4c3OCCO4)nc(NCC3CCCC3)c12 [Example 133, 4-((cyclopentylmethyl)amino)-2-((8-(morpholine-4-carbonyl)-2,3-dihydrobenzo[b][1,4]dioxin-5-yl)amino)-7H-pyrrolo[2,3-d]pyrimidine-5-carbonitrile] | –
2 | 101 to 300 nM | < 100 nM | CCCNc1nc(Nc2ccc(C(=O)N3CCC(N4CCOCC4)CC3)c3c2OCCO3)nc2[nH]cc(C#N)c12 [Example 138, 2-((8-(4-morpholinopiperidine-1-carbonyl)-2,3-dihydrobenzo[b][1,4]dioxin-5-yl)amino)-4-(propylamino)-7H-pyrrolo[2,3-d]pyrimidine-5-carbonitrile] | –
3 | – | < 100 nM | CCNc1nc(Nc2ccc(S(=O)(=O)N3CCC(N4CCOCC4)CC3)cc2OC)nc2[nH]cc(C(F)(F)F)c12 [Example 158, N^4-ethyl-N^2-(2-methoxy-4-((4-morpholinopiperidin-1-yl)sulfonyl)phenyl)-5-(trifluoromethyl)-7H-pyrrolo[2,3-d]pyrimidine-2,4-diamine 2,2,2-trifluoroacetate] | –
4 | – | 101 to 300 nM | CCCNc1nc(Nc2ccc(S(=O)(=O)N3CCC(N4CCOCC4)CC3)cc2OC)nc2[nH]cc(C(F)(F)F)c12 [Example 161, N^2-(2-methoxy-4-((4-morpholinopiperidin-1-yl)sulfonyl)phenyl)-N^4-propyl-5-(trifluoromethyl)-7H-pyrrolo[2,3-d]pyrimidine-2,4-diamine] | –
5 | < 100 nM | < 100 nM | N#Cc1c[nH]c2nc(Nc3ccc(C(=O)N4CCC(N5CCOCC5)CC4)c4c3OCCO4)nc(C3CC3)c12 [Example 221, 4-cyclopropyl-2-((8-(4-morpholinopiperidine-1-carbonyl)-2,3-dihydrobenzo[b][1,4]dioxin-5-yl)amino)-7H-pyrrolo[2,3-d]pyrimidine-5-carbonitrile] | –
6 | – | 101 to 300 nM | COc1cc(S(=O)(=O)N2CCOCC2)ccc1Nc1nc(C2CC2)c2c(C#N)c[nH]c2n1 [Example 223, 4-cyclopropyl-2-((2-methoxy-4-(morpholinosulfonyl)phenyl)amino)-7H-pyrrolo[2,3-d]pyrimidine-5-carbonitrile] | –
7 | – | < 100 nM | COc1cc(S(=O)(=O)N2CCC(N3CCOCC3)CC2)ccc1Nc1nc(C2CC2)c2c(C#N)c[nH]c2n1 [Example 224, 4-cyclopropyl-2-((2-methoxy-4-((4-morpholinopiperidin-1-yl)sulfonyl)phenyl)amino)-7H-pyrrolo[2,3-d]pyrimidine-5-carbonitrile] | –
8 | – | < 100 nM | COc1cc(S(=O)(=O)N2CCC(N3CCOCC3)CC2)ccc1Nc1nc(C2CC2)c2c(C(F)(F)F)c[nH]c2n1 [Example 226] | –
9 | – | < 100 nM | O=C(c1ccc(Nc2nc(C3CC3)c3c(C(F)(F)F)c[nH]c3n2)c2c1OCCO2)N1CCC(N2CCOCC2)CC1 [Example 228, (8-((4-cyclopropyl-5-(trifluoromethyl)-7H-pyrrolo[2,3-d]pyrimidin-2-yl)amino)-2,3-dihydrobenzo[b][1,4]dioxin-5-yl)(4-morpholinopiperidin-1-yl)methanone] | –
10 | 101 to 300 nM | 101 to 300 nM | CNc1nc(Nc2cc(F)c(S(=O)(=O)N3CCC(N4CCOCC4)CC3)cc2OC)nc2[nH]cc(C(F)(F)F)c12 [Example 231, N^2-(5-fluoro-2-methoxy-4-((4-morpholinopiperidin-1-yl)sulfonyl)phenyl)-N^4-methyl-5-(trifluoromethyl)-7H-pyrrolo[2,3-d]pyrimidine-2,4-diamine] | –
11 | 301 to 1000 nM | 301 to 1000 nM | CCNc1nc(Nc2cc(F)c(S(=O)(=O)N3CCC(N4CCOCC4)CC3)cc2OC)nc2[nH]cc(C(F)(F)F)c12 [Example 232, N^4-ethyl-N^2-(5-fluoro-2-methoxy-4-((4-morpholinopiperidin-1-yl)sulfonyl)phenyl)-5-(trifluoromethyl)-7H-pyrrolo[2,3-d]pyrimidine-2,4-diamine] | –
12 | < 100 nM | – | CNc1nc(Nc2ccc(C(=O)N3CC[C@H](N4CCOCC4)C3)c3c2OCC3)nc2[nH]cc(C(F)(F)F)c12 [Example 236, (S)-(7-((4-(methylamino)-5-(trifluoromethyl)-7H-pyrrolo[2,3-d]pyrimidin-2-yl)amino)-2,3-dihydrobenzofuran-4-yl)(3-morpholinopyrrolidin-1-yl)methanone] | 22.9%
13 | < 100 nM | – | CNc1nc(Nc2ccc(C(=O)N3CCC(N4CCOCC4)CC3)c3c2OCCO3)nc2[nH]cc(C(F)(F)F)c12 [Example 238, (8-((4-(methylamino)-5-(trifluoromethyl)-7H-pyrrolo[2,3-d]pyrimidin-2-yl)amino)-2,3-dihydrobenzo[b][1,4]dioxin-5-yl)(4-morpholinopiperidin-1-yl)methanone] | –
14 | – | < 100 nM | CCN1CCP(=O)(c2ccc(Nc3nc(C4CC4)c4c(C#N)c[nH]c4n3)c(OC)c2)CC1 [Example 261] | –
15 | < 100 nM | – | CCNc1nc(Nc2ccc(C(=O)N3CCC(N4CCOCC4)CC3)c3c2OCC3)nc2[nH]cc(C#N)c12 [Example 347, 4-(ethylamino)-2-((4-(4-morpholino-piperidine-1-carbonyl)-2,3-dihydro-benzofuran-7-yl)amino)-7H-pyrrolo[2,3-d]pyrimidine-5-carbonitrile] | 14.1%
16 | < 100 nM | – | CCNc1nc(Nc2ccc(C(=O)N3CCN(C4COC4)CC3)c3c2OCCO3)nc2[nH]cc(C(F)(F)F)c12 [Example 400, (8-((4-(ethylamino)-5-(trifluoromethyl)-7H-pyrrolo[2,3-d]pyrimidin-2-yl)amino)-2,3-dihydrobenzo[b] [1,4]dioxin-5-yl) (4-(oxetan-3-yl)piperazin-1-yl)methanone] | 24.7%
17 | < 100 nM | – | O=C(c1ccc(Nc2nc(NC3CC3)c3c(C(F)(F)F)c[nH]c3n2)c2c1OCCO2)N1CCN(C2COC2)CC1 [Example 405, (8-((4-(cyclo-propylamino)-5-(trifluoromethyl)-7H-pyrrolo[2,3-d]pyrimidin-2-yl)amino)-2,3-dihydrobenzo[b] [1,4]dioxin-5-yl) (4-(oxetan-3-yl)piperazin-1-yl)methanone] | –
18 | < 100 nM | – | O=C(c1ccc(Nc2nc(NC3CCC3)c3c(C(F)(F)F)c[nH]c3n2)c2c1OCCO2)N1CCN(C2COC2)CC1 [Example 407, (8-((4-(cyclo-butylamino)-5-(trifluoromethyl)-7H-pyrrolo[2,3-d]pyrimidin-2-yl)amino)-2,3-dihydrobenzo[b] [1,4]dioxin-5-yl) (4-(oxetan-3-yl)piperazin-1-yl)methanone] | 20.2%
19 | 101 to 300 nM | – | CNc1nc(Nc2ccc(P3(=O)CCN(C4CC4)CC3)cc2OC)nc2[nH]cc(C(F)(F)F)c12 [Example 411, 1-cyclopropyl-4-(3-methoxy-4-((4-(methylamino)-5-(trifluoromethyl)-7H-pyrrolo[2,3-d]pyrimidin-2-yl)amino)phenyl)-1,4-azaphosphinane-4-oxide] | –
20 | 301 to 1000 nM | < 100 nM | COc1cc(P2(=O)CCN(C3CC3)CC2)ccc1Nc1nc(NC2CCCC2)c2c(C(F)(F)F)c[nH]c2n1 [Example 413] | –
21 | 301 to 1000 nM | < 100 nM | O=C(c1ccc(Nc2nc(NC3CCCCC3)c3c(C(F)(F)F)c[nH]c3n2)c2c1OCCO2)N1CCN(C2COC2)CC1 [Example 415, (8-((4-(cyclo-hexylamino)-5-(trifluoromethyl)-7H-pyrrolo[2,3-d]pyrimidin-2-yl)amino)-2,3-dihydrobenzo[b] [1,4]dioxin-5-yl) (4-(oxetan-3-yl)piperazin-1-yl)methanone] | –
22 | < 100 nM | – | COCCNc1nc(Nc2ccc(P3(=O)CCN(C4CCOCC4)CC3)cc2OC)nc2[nH]cc(C(F)(F)F)c12 [Example 444, 4-(3-methoxy-4-((4-((2-methoxyethyl)amino)-5-(trifluoromethyl)-7H-pyrrolo[2,3-d]pyrimidin-2-yl)amino)phenyl)-1-(tetrahydro-2H-pyran-4-yl)-1,4-azaphosphinane 4-oxide] | 20%
